Measured values from US9447156B2, “Methods and compositions for inhibiting neddylation of proteins” (St. Jude Children's Research Hospital, priority 2011, dated 2016).
Like-named read-outs stand apart in the source and are kept apart here. Positions of bridges follow the written chain, without caps; N, C: chain ends. Non-standard residues stand in square brackets, D forms with d. Residues, ends and D or L forms follow the SMILES beside them. No end group written: not given here. *: point of attachment. S5 = C=CCCC[C@](C)(N)C(=O)O; For = O=C*

Legend:
[1] = biological target: T1, hDcn1^P (Homo sapiens, UniProt Q96GG9); assay: ITC binding of Ubc12/Ube2f peptides to hDcn1^P; details: for ΔH: change in enthalpy; for ΔS: change in entropy
T1 construct: hDcn1^P corresponds to residues 62 to the C-terminal residue 259 of hDcn1; GST (cleaved yes); made in house; host or cells: E. coli BL21(DE3)Gold
Experimental: (§1) Protein samples were buffer matched by desalting over a NAP-5 column (GE Healthcare) into 50 mM Hepes, 125 mM NaCl, 1 mM BME, pH 7.0 (ITC buffer). Peptides were dissolved by weight to a final concentration of 10 mM in ITC buffer and diluted further in ITC buffer as required for the experiments. Measurements were performed using a MicroCal ITC200. hDcn1^P or yDcn1^P were placed into the sample cell at a final concentration of 400 μM at 18° C. The peptide ligands (4 mM) were constantly injected (1.5 μl). The interval time between each injection was 3 minutes and the duration of each injection was 3 seconds. For titrations involving hE1 and yE1, proteins were placed into the sample cell at a final concentration of 25 μM at 22° C. Peptide ligands (250 μM) were constantly injected (2.5 μl). The interval time between each injection was three minutes and the duration of each injection was 5 seconds. For hCul1^ctd-Rbx1:hDcn1^P binding, proteins were buffer matched by desalting over a NAP-5 column in 25 mM Tris, 0.1 M NaCl, 1 mM BME, pH 7.6. hCul1^ctd-Rbx1 was placed into the sample cell at a final concentration of 55 μM at 22° C. hDcn1^P (550 μM) was constantly injected (2.5 μl). The interval time between each injection was 3 minutes and the duration of each injection was 5 seconds. Obtained spectra were evaluated using Origin (V 7.0) to determine heats of binding and Kd values.
The affinity of various peptides for hDcn1^P, hDcn2^P, hDcn3^P, hDcn4^P, and hDcn5^P was tested using isothermal titration calorimetry as described in Example 1 and is provided in Table 29.

[2] = biological target: T2, hE1 for Nedd8 (APPBP1-UBA3) (Homo sapiens, UniProt Q8TBC4); assay: ITC binding of Ubc12 peptides to hE1; details: for Kd / ΔH / ΔS: ITC; for Kd: protein hE1, titrant Ubc12 peptide; for ΔH / ΔS: protein hE1; for ΔH: change in enthalpy; for ΔS: change in entropy
T2 construct: made in house; host or cells: E. coli
T2 sequence (Q8TBC4 22-463 limits assumed): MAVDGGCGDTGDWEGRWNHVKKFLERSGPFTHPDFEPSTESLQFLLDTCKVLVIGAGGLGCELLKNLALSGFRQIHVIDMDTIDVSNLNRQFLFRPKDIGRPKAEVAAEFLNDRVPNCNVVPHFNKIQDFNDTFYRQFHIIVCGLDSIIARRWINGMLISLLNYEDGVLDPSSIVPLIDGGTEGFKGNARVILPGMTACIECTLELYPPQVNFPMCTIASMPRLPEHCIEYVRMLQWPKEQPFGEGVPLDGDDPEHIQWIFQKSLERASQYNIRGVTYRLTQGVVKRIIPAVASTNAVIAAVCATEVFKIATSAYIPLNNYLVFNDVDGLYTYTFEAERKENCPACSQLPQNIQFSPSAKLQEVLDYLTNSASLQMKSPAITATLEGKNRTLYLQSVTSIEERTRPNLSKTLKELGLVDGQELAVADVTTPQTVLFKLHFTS
T2 sequence (Q13564 1-534 partner): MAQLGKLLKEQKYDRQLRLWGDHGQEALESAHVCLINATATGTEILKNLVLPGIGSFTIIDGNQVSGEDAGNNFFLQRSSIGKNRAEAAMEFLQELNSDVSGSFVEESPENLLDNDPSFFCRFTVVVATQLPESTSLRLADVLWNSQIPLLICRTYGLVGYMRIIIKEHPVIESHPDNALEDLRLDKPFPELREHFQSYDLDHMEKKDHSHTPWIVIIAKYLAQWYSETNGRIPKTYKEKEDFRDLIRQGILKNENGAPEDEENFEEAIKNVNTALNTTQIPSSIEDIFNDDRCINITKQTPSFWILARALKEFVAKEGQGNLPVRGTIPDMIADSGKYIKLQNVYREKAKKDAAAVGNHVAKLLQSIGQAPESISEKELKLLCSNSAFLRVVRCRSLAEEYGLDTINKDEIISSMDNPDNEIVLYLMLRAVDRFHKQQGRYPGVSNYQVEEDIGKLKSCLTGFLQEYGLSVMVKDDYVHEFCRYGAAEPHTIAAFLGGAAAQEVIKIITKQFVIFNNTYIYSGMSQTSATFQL
Experimental: as §1

[3] = Table 29, peptides with amidated carboxy-terminus, read-out: Binding Kd for hDcn1^P
[4] = protein hDcn1^P, titrant Ubc12 peptide, read-out: Kd

T1 sequence (Q96GG9 62-259): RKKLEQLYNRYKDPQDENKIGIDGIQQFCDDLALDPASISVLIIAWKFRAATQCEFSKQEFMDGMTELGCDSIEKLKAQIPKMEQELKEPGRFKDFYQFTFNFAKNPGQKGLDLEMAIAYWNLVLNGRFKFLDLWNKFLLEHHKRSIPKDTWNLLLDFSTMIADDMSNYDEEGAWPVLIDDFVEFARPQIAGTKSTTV

Row | ΔH ([1]; protein hDcn1^P) | ΔS ([1]; protein hDcn1^P) [cal/mol/deg] | Kd [2] [nM] | ΔH [2] | ΔS [2] [cal/mol/deg] | Kd [1, 3] [nM] | Kd [1, 4] [nM] | binding to E1 ([2]; data not shown) | Molecule
1 | −3,386 cal/mol | 19.3 | – | – | – | – | – | – | CC[C@H](C)[C@H](NC(=O)[C@H](CCSC)NC(C)=O)C(=O)N[C@@H](CCCCN)C(=O)N[C@@H](CC(C)C)C(=O)N[C@@]1(C)CCCC=CCCC[C@@](C)(C(=O)N[C@@H](CCC(N)=O)C(=O)N[C@@H](CCCCN)C(=O)N[C@@H](CCCCN)C(N)=O)NC(=O)[C@H](CCCCN)NC(=O)[C@H](CC(C)C)NC(=O)[C@H](CO)NC1=O [Acetyl-hUbc12^1-12 (5:9Staple)] (Ac-MIKL[S5]SLK[S5]QKK-NH2; staple 5-9)
2 | −4,992 cal/mol | 8.79 | 630 | −11,490 cal/mol | −11.0 | – | – | – | CC[C@H](C)[C@H](NC(=O)[C@H](CCSC)NC(C)=O)C(=O)N[C@@H](CCCCN)C(=O)N[C@@H](CC(C)C)C(=O)N[C@@H](Cc1ccccc1)C(=O)N[C@@H](CO)C(=O)N[C@@H](CC(C)C)C(=O)N[C@@H](CCCCN)C(=O)N[C@@H](CCC(N)=O)C(=O)N[C@@H](CCC(N)=O)C(=O)N[C@@H](CCCCN)C(=O)N[C@@H](CCCCN)C(N)=O [Acetyl-hUbc12^1-12]
3 | −4,893 cal/mol | 5.79 | – | – | – | – | – | – | CC[C@H](C)[C@H](NC(=O)[C@H](CCSC)NC=O)C(=O)N[C@@H](CCCCN)C(=O)N[C@@H](CC(C)C)C(=O)N[C@@H](Cc1ccccc1)C(=O)N[C@@H](CO)C(=O)N[C@@H](CC(C)C)C(=O)N[C@@H](CCCCN)C(=O)N[C@@H](CCC(N)=O)C(=O)N[C@@H](CCC(N)=O)C(=O)N[C@@H](CCCCN)C(=O)N[C@@H](CCCCN)C(=O)N[C@@H](CCC(=O)O)C(=O)N[C@@H](CCC(=O)O)C(=O)N[C@@H](CCC(=O)O)C(=O)N[C@@H](CO)C(=O)N[C@@H](C)C(=O)NCC(=O)NCC(=O)N[C@H](C(=O)N[C@@H](CCCCN)C(=O)NCC(=O)N[C@@H](CO)C(=O)N[C@@H](CO)C(=O)N[C@@H](CCCCN)C(=O)N[C@@H](CCCCN)C(N)=O)[C@@H](C)O [Formyl-hUbcU^126] (For-MIKLFSLKQQKKEEESAGGTKGSSKK-NH2)
4 | – | – | – | – | – | > 400000 | – | – | CCCC[C@H](N)C(=O)N[C@H](C(=O)N[C@@H](CCCCN)C(=O)N[C@@H](CC(C)C)C(=O)N[C@@H](Cc1ccccc1)C(=O)N[C@@H](CO)C(=O)N[C@@H](CC(C)C)C(=O)N[C@@H](CCCCN)C(=O)N[C@@H](CCC(N)=O)C(=O)N[C@@H](CCC(N)=O)C(=O)N[C@@H](CCCCN)C(=O)N[C@@H](CCCCN)C(N)=O)[C@@H](C)CC [hUbc12^1−12 (NorLeu)]
5 | 1,719 cal/mol | 24.1 | 390 | −8,899 cal/mol | −1.24 | – | > 100000 | – | Ac-IKLFSLKQQKKEEESAGGTKGSSKK-NH2 [Acetyl-hUbc12^2-26]
6 | – | – | – | – | – | > 150000 | – | – | Ac-IKLFSLKQQKKEEESAGGTKGSSKK-NH2 [hUbc12^Ac−2−26]
7 | −6,107 cal/mol | 5.84 | 943 | −9,425 cal/mol | −4.79 | – | – | – | Ac-MIKLFSLKQQKKEEESAGGTKGSSKK-NH2 [Acetyl-hUbc12^1-26]
8 | – | – | – | – | – | – | – | no longer binds E1 | AcetylhUbc12^Ac1-12(5,9 Staple): Acetylated hUbc12 1-12 with Phe5 and Gln9 replaced with (S)-2-(4'-pentenyl)alanine, side-chains covalently linked (Ac-MIKL[S5]SLK[S5]QKK-NH2; staple 5-9)
9 | 1,259 cal/mol | 22.2 | 585 | −8,881 cal/mol | −1.99 | – | > 130000 | – | H-MIKLFSLKQQKKEEESAGGTKGSSKK-NH2 [hUbc12^1-26]
10 | – | – | – | – | – | > 200000 | – | – | MIKLFSLKQQKKEEESAGGTKGSSKK-NH2 [hUbc12^1−26]
